# Assay results published in US20260376293A1, “METHODS FOR STUDYING GPR158 PHARMACOLOGY AND IDENTIFICATION OF ITS LIGANDS” (UNIVERSITY OF FLORIDA RESEARCH FOUNDATION, INCORPORATED, priority 2022, published 2026).
# Target: T1, GPR158 (Homo sapiens, UniProt Q5T848)
# T1 construct: expressed in transfected cells; host or cells: HEK293T/17
# T1 sequence (Q5T848 24-1215): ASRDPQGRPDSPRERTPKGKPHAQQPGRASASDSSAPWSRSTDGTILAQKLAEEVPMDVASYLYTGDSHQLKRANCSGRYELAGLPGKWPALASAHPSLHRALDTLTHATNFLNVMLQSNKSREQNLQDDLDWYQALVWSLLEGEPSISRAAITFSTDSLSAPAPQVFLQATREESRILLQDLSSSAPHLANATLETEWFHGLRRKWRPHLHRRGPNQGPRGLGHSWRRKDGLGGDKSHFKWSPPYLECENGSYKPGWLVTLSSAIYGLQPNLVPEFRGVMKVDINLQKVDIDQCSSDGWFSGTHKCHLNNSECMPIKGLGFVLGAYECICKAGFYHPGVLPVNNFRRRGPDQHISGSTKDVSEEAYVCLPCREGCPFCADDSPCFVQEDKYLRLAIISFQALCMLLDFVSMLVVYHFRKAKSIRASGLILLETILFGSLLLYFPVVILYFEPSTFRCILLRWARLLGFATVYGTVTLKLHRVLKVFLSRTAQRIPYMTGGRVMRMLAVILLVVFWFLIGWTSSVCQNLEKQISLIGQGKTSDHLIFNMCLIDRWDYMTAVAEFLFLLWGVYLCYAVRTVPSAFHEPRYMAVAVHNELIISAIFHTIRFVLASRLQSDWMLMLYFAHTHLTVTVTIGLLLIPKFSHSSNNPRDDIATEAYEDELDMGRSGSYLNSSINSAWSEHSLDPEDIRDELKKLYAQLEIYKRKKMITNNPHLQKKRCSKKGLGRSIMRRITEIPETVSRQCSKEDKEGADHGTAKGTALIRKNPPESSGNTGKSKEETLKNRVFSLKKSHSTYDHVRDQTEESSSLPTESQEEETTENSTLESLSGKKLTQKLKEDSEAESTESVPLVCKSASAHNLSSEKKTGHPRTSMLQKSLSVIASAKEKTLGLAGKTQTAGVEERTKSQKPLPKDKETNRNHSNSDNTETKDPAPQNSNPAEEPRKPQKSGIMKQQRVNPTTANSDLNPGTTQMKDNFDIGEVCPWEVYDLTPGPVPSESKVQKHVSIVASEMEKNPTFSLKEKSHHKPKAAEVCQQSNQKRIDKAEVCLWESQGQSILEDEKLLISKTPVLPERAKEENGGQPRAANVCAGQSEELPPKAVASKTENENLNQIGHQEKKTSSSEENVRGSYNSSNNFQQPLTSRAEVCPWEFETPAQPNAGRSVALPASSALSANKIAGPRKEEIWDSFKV
# T1 sequence (P49802 1-495 partner): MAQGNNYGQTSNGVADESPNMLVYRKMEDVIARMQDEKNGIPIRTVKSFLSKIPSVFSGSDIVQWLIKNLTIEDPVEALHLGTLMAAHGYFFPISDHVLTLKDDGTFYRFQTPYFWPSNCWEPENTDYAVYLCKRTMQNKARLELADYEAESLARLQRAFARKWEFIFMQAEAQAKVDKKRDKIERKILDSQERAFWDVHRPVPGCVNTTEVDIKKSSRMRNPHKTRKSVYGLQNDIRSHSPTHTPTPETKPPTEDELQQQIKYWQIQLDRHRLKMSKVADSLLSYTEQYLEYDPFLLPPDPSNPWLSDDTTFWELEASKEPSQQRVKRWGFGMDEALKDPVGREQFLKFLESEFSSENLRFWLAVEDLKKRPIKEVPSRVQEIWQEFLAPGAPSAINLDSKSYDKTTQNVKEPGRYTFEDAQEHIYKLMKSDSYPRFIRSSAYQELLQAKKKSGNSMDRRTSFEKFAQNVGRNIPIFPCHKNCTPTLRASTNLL
# T1 sequence (O14775 1-395 partner): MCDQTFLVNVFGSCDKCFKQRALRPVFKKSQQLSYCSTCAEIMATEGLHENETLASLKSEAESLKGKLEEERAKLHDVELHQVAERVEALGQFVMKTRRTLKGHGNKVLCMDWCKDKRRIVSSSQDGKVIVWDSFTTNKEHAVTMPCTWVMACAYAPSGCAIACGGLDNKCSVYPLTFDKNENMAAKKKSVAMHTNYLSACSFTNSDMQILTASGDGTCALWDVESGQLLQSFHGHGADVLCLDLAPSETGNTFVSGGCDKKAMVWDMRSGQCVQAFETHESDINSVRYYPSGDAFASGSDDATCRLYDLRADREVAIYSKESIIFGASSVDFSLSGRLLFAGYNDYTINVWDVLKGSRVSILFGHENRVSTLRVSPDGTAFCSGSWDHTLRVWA
# Test: cADDIS fluorescence-based cAMP assay, HEK293T/17 cells
# Type: cell-based
# Conditions: 500 μM Gly, 15 min, forskolin; GPR158-RGS7/Gβ5, HEK293T/17
# Method: B. Effect of Gly on cAMP levels measured using CADDIS assay in HEK293T/17 cells (Gly conc. 500 μM). Binding of Gly to Cache domain of GPR158 blocks the GAP activity of GPR158-RGS7/Gβ5 complex on Gαo, resulting in lowering of CAMP levels. Data shown here represent the normalized fluorescence intensity upon Gly treatment (Mean±SEM from 3 independent experiments, Unpaired t-test, **p=0.0016)
# In an effort to study the modulatory effects of Gly on CAMP through GPR158, the inventors took advantage of a fluorescence-based cAMP sensor cADDIS (Montana molecular) which involves Bacmam virus-based transduction of sensor into the cells (FIG. 17A).
# Briefly, HEK293T/17 cells were co-transfected with plasmids for GPR158, RGS7 and Gβ5 (150 μg/ml, GPR158: RGS7: Gβ5:4:1:1) by electroporation (Maxcyte). […] Before Glycine treatment, baseline fluorescence intensity was recorded using a fluorescence intensity module (FI Ex: 485 nm, Em: 520 nm) in Pherastar FSX microplate reader (BMG Labtech) followed by forskolin treatment for 15 min. Subsequently, the cells were treated with 500 μM Gly and fluorescence intensity was recorded. […]
# The cADDIS assay for Gαi results in increase in fluorescence when CAMP is decreasing in the cells after drug treatment.
smiles,measurement,value
NCC(=O)O [glycine],cADDIS fluorescence change (cAMP decrease),significant increase in fluorescence
